Test results taken from the supplement of paper PMC10627819.
Values after ≈ are worked out from the molar mass of the structure shown.

Tests used:
[1] = test system: B. subtilis 168
[2] = test system: S. aureus DSM 20231
[3] = test system: S. aureus Newman
[4] = test system: S. pneumoniae D39V
[5] = test system: B. subtilis 168; test: fitness (endpoint OD595 vs no drug) (fraction); higher = more growth
How it was run: (§1)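 In 384-well plates at 37 °C, cultures began at OD595 0.01 in 30 µl, with 55 µl used for S. pneumoniae. OD595 readings every 30 min for 14 h were corrected by the first reading. Fitness divides the stationary-phase transition optical density by the robust mean of no-drug control wells. The result is capped at 1.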

[6] = test system: S. aureus DSM 20231; test: as above
How it was run: as §1

[7] = test system: S. aureus Newman; test: as above
How it was run: as §1

[8] = test system: S. pneumoniae D39V; test: as above
How it was run: as §1

COc1cccc2c1C(=O)c1c(O)c3c(c(O)c1C2=O)C[C@@](O)(C(=O)CO)C[C@@H]3O[C@H]1C[C@H](N)[C@H](O)[C@H](C)O1 [Doxorubicin]
MIC [1]: 5 µg/mL (≈ 9.2 µM)
MIC [2]: 2.78 µg/mL (≈ 5.11 µM)
MIC [3]: 2.78 µg/mL (≈ 5.11 µM)
MIC [4]: 1.2 µg/mL (≈ 2.21 µM)
fitness ([5]; 0.625 µg/mL): 0.946
fitness ([5]; 1.25 µg/mL): 0.918
fitness ([5]; 2.5 µg/mL): 0.816
fitness ([6]; 0.625 µg/mL): 0.967
fitness ([6]; 1.25 µg/mL): 0.907
fitness ([6]; 2.5 µg/mL): 0.827
fitness ([7]; 0.625 µg/mL): 0.896
fitness ([7]; 1.25 µg/mL): 0.791
fitness ([7]; 2.5 µg/mL): 0.68
fitness ([8]; 0.25 µg/mL): 0.86
fitness ([8]; 0.5 µg/mL): 0.903
fitness ([8]; 1 µg/mL): 0.781

CC(=O)Oc1ccccc1C(=O)O [Acetylsalicylic acid]
MIC [1]: 2000 µg/mL (≈ 11100 µM)
MIC [2]: 1000 µg/mL (≈ 5550 µM)
MIC [3]: 2000 µg/mL (≈ 11100 µM)
MIC [4]: 2000 µg/mL (≈ 11100 µM)
fitness ([5]; 250 µg/mL): 0.948
fitness ([5]; 500 µg/mL): 0.911
fitness ([5]; 1000 µg/mL): 0.745
fitness ([6]; 250 µg/mL): 0.991
fitness ([6]; 500 µg/mL): 0.888
fitness ([6]; 1000 µg/mL): 0.522
fitness ([8]; 250 µg/mL): 0.967
fitness ([8]; 500 µg/mL): 0.965
fitness ([8]; 1000 µg/mL): 0.924

CO/N=C(\C(=O)N[C@@H]1C(=O)N2C(C(=O)O)=C(COC(C)=O)CS[C@H]12)c1csc(N)n1 [Cefotaxime]
MIC [2]: 0.173 µg/mL (≈ 0.38 µM)
MIC [3]: 2.5 µg/mL (≈ 5.49 µM)
MIC [4]: 0.008 µg/mL (≈ 0.0176 µM)
fitness ([5]; 0.0625 µg/mL): 0.477
fitness ([5]; 0.125 µg/mL): 0.338
fitness ([5]; 0.25 µg/mL): 0.205
fitness ([5]; 0.5 µg/mL): 0.113
fitness ([5]; 1 µg/mL): 0.0654
fitness ([5]; 2 µg/mL): 0.0508
fitness ([6]; 0.039 µg/mL): 0.935
fitness ([6]; 0.078 µg/mL): 0.869
fitness ([6]; 0.155 µg/mL): 0.951
fitness ([6]; 0.156 µg/mL): 0.844
fitness ([6]; 0.31 µg/mL): 0.825
fitness ([6]; 0.312 µg/mL): 0.676
fitness ([6]; 0.62 µg/mL): 0.669
fitness ([7]; 0.039 µg/mL): 0.829
fitness ([7]; 0.078 µg/mL): 0.786
fitness ([7]; 0.156 µg/mL): 0.729
fitness ([7]; 0.312 µg/mL): 0.462
fitness ([7]; 0.625 µg/mL): 0.0743
fitness ([7]; 1.25 µg/mL): 0.022
fitness ([7]; 2.5 µg/mL): 0.021
fitness ([8]; 0.0018 µg/mL): ≥ 1
fitness ([8]; 0.0035 µg/mL): 0.998
fitness ([8]; 0.007 µg/mL): 0.83

C[C@H]1c2cccc(O)c2C(=O)C2=C(O)[C@]3(O)C(=O)C(C(N)=O)=C(O)[C@@H](N(C)C)[C@@H]3[C@@H](O)[C@@H]21 [Doxycycline]
MIC [1]: 0.08 µg/mL (≈ 0.18 µM)
MIC [2]: 0.034 µg/mL (≈ 0.0765 µM)
fitness ([5]; 0.02 µg/mL): 0.876
fitness ([5]; 0.04 µg/mL): 0.754
fitness ([5]; 0.08 µg/mL): 0.457
fitness ([8]; 0.0155 µg/mL): 0.789
fitness ([8]; 0.031 µg/mL): 0.73
fitness ([8]; 0.062 µg/mL): 0.59

CN(C)c1cc(NC(=O)CNC(C)(C)C)c(O)c2c1C[C@H]1C[C@H]3[C@H](N(C)C)C(O)=C(C(N)=O)C(=O)[C@@]3(O)C(O)=C1C2=O [Tigecycline]
MIC [1]: 0.312 µg/mL (≈ 0.533 µM)
MIC [2]: 0.18 µg/mL (≈ 0.307 µM)
MIC [3]: 0.18 µg/mL (≈ 0.307 µM)
MIC [4]: 3 µg/mL (≈ 5.12 µM)
fitness ([5]; 0.039 µg/mL): 0.953
fitness ([5]; 0.078 µg/mL): 0.95
fitness ([5]; 0.156 µg/mL): 0.933
fitness ([7]; 0.039 µg/mL): 0.975
fitness ([7]; 0.078 µg/mL): 0.959
fitness ([7]; 0.156 µg/mL): 0.973
fitness ([8]; 0.325 µg/mL): 0.971
fitness ([8]; 0.65 µg/mL): 0.959
fitness ([8]; 1.3 µg/mL): 0.966
fitness ([8]; 2.6 µg/mL): 0.965

Cc1ncc([N+](=O)[O-])n1CCO [Metronidazole]
MIC [1]: 5 µg/mL (≈ 29.2 µM)
MIC [2]: 3 µg/mL (≈ 17.5 µM)
MIC [3]: 3 µg/mL (≈ 17.5 µM)
MIC [4]: 10 µg/mL (≈ 58.4 µM)
fitness ([5]; 0.625 µg/mL): 0.955
fitness ([5]; 1.25 µg/mL): 0.946
fitness ([5]; 2.5 µg/mL): 0.94
fitness ([6]; 0.625 µg/mL): ≥ 1
fitness ([6]; 1.25 µg/mL): ≥ 1
fitness ([6]; 2.5 µg/mL): ≥ 1
fitness ([7]; 0.625 µg/mL): ≥ 1
fitness ([7]; 0.781 µg/mL): ≥ 1
fitness ([7]; 1.25 µg/mL): ≥ 1
fitness ([7]; 1.562 µg/mL): ≥ 1
fitness ([7]; 2.5 µg/mL): ≥ 1
fitness ([7]; 3.124 µg/mL): 0.999
fitness ([8]; 1.25 µg/mL): ≥ 1
fitness ([8]; 2.5 µg/mL): ≥ 1
fitness ([8]; 5 µg/mL): 0.997

CN(C)[C@@H]1C(O)=C(C(N)=O)C(=O)[C@@]2(O)C(O)=C3C(=O)c4c(O)ccc(Cl)c4[C@@](C)(O)[C@H]3C[C@@H]12 [Chlortetracycline]
MIC [1]: 0.4 µg/mL (≈ 0.835 µM)
MIC [2]: 0.15 µg/mL (≈ 0.313 µM)
MIC [3]: 0.095 µg/mL (≈ 0.198 µM)
MIC [4]: 1.5 µg/mL (≈ 3.13 µM)
fitness ([5]; 0.0475 µg/mL): 0.895
fitness ([5]; 0.095 µg/mL): 0.8
fitness ([5]; 0.19 µg/mL): 0.524
fitness ([6]; 0.012 µg/mL): 0.793
fitness ([6]; 0.024 µg/mL): 0.441
fitness ([6]; 0.048 µg/mL): 0.073
fitness ([7]; 0.012 µg/mL): 0.683
fitness ([7]; 0.0238 µg/mL): 0.237
fitness ([7]; 0.024 µg/mL): 0.402
fitness ([7]; 0.0475 µg/mL): 0.0993
fitness ([7]; 0.048 µg/mL): 0.0667
fitness ([7]; 0.095 µg/mL): 0.0061
fitness ([8]; 0.012 µg/mL): 0.857
fitness ([8]; 0.024 µg/mL): 0.703
fitness ([8]; 0.048 µg/mL): 0.526

N#CC(C#N)=NNc1cccc(Cl)c1 [CCCP]
MIC [1]: 2.3 µg/mL (≈ 11.2 µM)
MIC [4]: 4.5 µg/mL (≈ 22 µM)
fitness ([8]; 0.575 µg/mL): 0.981
fitness ([8]; 1.15 µg/mL): 0.968
fitness ([8]; 2.3 µg/mL): 0.942

O=C(O)c1cn(C2CC2)c2cc(N3CCNCC3)c(F)cc2c1=O [Ciprofloxacin]
MIC [2]: 0.312 µg/mL (≈ 0.942 µM)
MIC [3]: 0.156 µg/mL (≈ 0.471 µM)
MIC [4]: 1 µg/mL (≈ 3.02 µM)
fitness ([5]; 0.0098 µg/mL): 0.871
fitness ([5]; 0.0195 µg/mL): 0.777
fitness ([5]; 0.039 µg/mL): 0.135
fitness ([6]; 0.0375 µg/mL): 1
fitness ([6]; 0.075 µg/mL): 0.978
fitness ([6]; 0.078 µg/mL): 0.899
fitness ([6]; 0.15 µg/mL): 0.77
fitness ([6]; 0.156 µg/mL): 0.754
fitness ([6]; 0.312 µg/mL): 0.456
fitness ([7]; 0.0375 µg/mL): 0.801
fitness ([7]; 0.075 µg/mL): 0.597
fitness ([7]; 0.078 µg/mL): 0.708
fitness ([7]; 0.15 µg/mL): 0.0387
fitness ([7]; 0.156 µg/mL): 0.267
fitness ([7]; 0.312 µg/mL): 0.0879

CC1(C)S[C@@H]2[C@H](NC(=O)Cc3ccccc3)C(=O)N2[C@H]1C(=O)O [Penicillin G]
MIC [2]: 0.087 µg/mL (≈ 0.26 µM)
MIC [3]: 0.087 µg/mL (≈ 0.26 µM)
MIC [4]: 0.016 µg/mL (≈ 0.0478 µM)
fitness ([7]; 0.0195 µg/mL): 0.928
fitness ([7]; 0.039 µg/mL): 0.892
fitness ([7]; 0.078 µg/mL): 0.886
fitness ([8]; 0.0018 µg/mL): 0.932
fitness ([8]; 0.0035 µg/mL): 0.944
fitness ([8]; 0.007 µg/mL): 0.817
fitness ([8]; 0.014 µg/mL): 0.425

COc1ccc(C[C@H](N)C(=O)N[C@H]2[C@@H](O)[C@H](n3cnc4c(N(C)C)ncnc43)O[C@@H]2CO)cc1 [Puromycin]
MIC [1]: 1.56 µg/mL (≈ 3.31 µM)
MIC [2]: 1.8 µg/mL (≈ 3.82 µM)
MIC [3]: 1.8 µg/mL (≈ 3.82 µM)
MIC [4]: 12.5 µg/mL (≈ 26.5 µM)
fitness ([5]; 0.39 µg/mL): 0.931
fitness ([5]; 0.78 µg/mL): 0.929
fitness ([5]; 1.56 µg/mL): 0.94
fitness ([6]; 0.39 µg/mL): ≥ 1
fitness ([6]; 0.78 µg/mL): ≥ 1
fitness ([6]; 1.56 µg/mL): ≥ 1
fitness ([7]; 0.39 µg/mL): 0.985
fitness ([7]; 0.78 µg/mL): 0.993
fitness ([7]; 1.56 µg/mL): ≥ 1
fitness ([8]; 1 µg/mL): ≥ 1
fitness ([8]; 2 µg/mL): 0.977
fitness ([8]; 4 µg/mL): 0.76
